Source: patent US20260022142A1, “MACROCYCLIC IMMUNOMODULATORS” (Bristol-Myers Squibb Company, priority 2022, published 2026)
Bridge positions count the residues as written; N and C are the ends. Square brackets hold non-standard residues; d marks the D form. Peptide text beside a SMILES is read from it. * marks the point of attachment. ξ: configuration not given here. Phe(4-CONH2) = NC(=O)c1ccc(C[C@H](N)C(=O)O)cc1; Phe(4-COOH) = N[C@@H](Cc1ccc(C(=O)O)cc1)C(=O)O; Bip = N[C@@H](Cc1ccc(-c2ccccc2)cc1)C(=O)O; Phe(3-Me) = Cc1cccc(C[C@H](N)C(=O)O)c1; Phe(4-F) = N[C@@H](Cc1ccc(F)cc1)C(=O)O; Val(3-OH) = CC(C)(O)[C@H](N)C(=O)O; 4Pal = N[C@@H](Cc1ccncc1)C(=O)O; Cha = N[C@@H](CC1CCCCC1)C(=O)O; Cit = NC(=O)NCCC[C@H](N)C(=O)O; Ile(3ξ) = CCC(C)[C@H](N)C(=O)O; Thr(3ξ) = CC(O)[C@H](N)C(=O)O; dDab = NCC[C@@H](N)C(=O)O; Carboxymethyl = O=C(O)C*; Orn = NCCC[C@H](N)C(=O)O; Aun = NCCCCCCCCCCC(=O)O; Dab = NCC[C@H](N)C(=O)O; AEEA = NCCOCCOCC(=O)O

The molecules below were run against T1, PD-1/PD-L1 interaction (PE-labeled human PD-L1-Ig binding to Jurkat cell line over-expressing human PD-1) (Homo sapiens, UniProt Q15116) (assay: Jurkat-PD-1 Cell Binding High-Content Screening Assay (CBA)). Conditions: Jurkat cell line over-expressing human PD-1; PE-labeled PD-L1-Ig 20 nM final; read-out: Jurkat hPD1-PDL1 IC50.
T1 construct: expressed in transfected cells; host or cells: Jurkat
T1 sequence (Q15116 25-288): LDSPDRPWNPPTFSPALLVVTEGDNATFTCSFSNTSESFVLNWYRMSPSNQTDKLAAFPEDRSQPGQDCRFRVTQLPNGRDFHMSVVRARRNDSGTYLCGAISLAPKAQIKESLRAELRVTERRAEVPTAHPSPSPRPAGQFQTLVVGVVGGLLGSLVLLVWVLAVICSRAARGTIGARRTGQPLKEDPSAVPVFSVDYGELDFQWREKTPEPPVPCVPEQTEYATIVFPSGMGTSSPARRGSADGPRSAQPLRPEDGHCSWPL
Format: cell-based
How it was run: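 First, compound is added to PD-1-expressing Jurkat cells in serum-containing DMEM and left 2 h at 37° C. Next, PE-conjugated PD-L1-Ig is introduced at 20 nM final concentration for 1 hour. Finally, cells are fixed in 4% paraformaldehyde with Hoechst 33342, washed and imaged.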
With `Cc1cccc(C[C@@H]2NC(=O)[C@H](CC(=O)O)NC(=O)[C@H](Cc3ccc(OCC(=O)O)cc3)NC(=O)[C@H](C(C)O)NC(=O)CSC[C@@H](C(=O)N[C@@H](CCN)C(=O)NCCCCCCCCCCC(=O)O)NC(=O)[C@H](C(C)O)NC(=O)[C@H](C(C)(C)O)NC(=O)[C@H](CC3CCCCC3)NC(=O)[C@H](Cc3cnc[nH]3)NC(=O)[C@@H](CC(C)C)NC(=O)[C@H](CCCN)NC(=O)[C@H](Cc3ccc(O)cc3)NC(=O)[C@H](Cc3ccc(-c4ccccc4)cc3)NC(=O)[C@H](Cc3ccc(C(N)=O)cc3)NC2=O)c1` (stereo partly drawn) [Compound 3729] ({CH2CO}-[Thr(3ξ)]Y(Carboxymethyl)D[Phe(3-Me)][Phe(4-CONH2)][Bip]Y[Orn][dL]H[Cha][Val(3-OH)][Thr(3ξ)]C[Dab][Aun]-OH; thioether N-14) the IC50 was 30.3 nM. In the case of `Cc1cccc(C[C@@H]2NC(=O)[C@H](CC(=O)O)NC(=O)[C@H](Cc3ccc(OCC(=O)O)cc3)NC(=O)[C@H](Cc3ccncc3)NC(=O)CSC[C@@H](C(=O)NCCOCCOCC(=O)NCCCCCCCCCCC(=O)O)NC(=O)[C@H](C(C)O)NC(=O)[C@H](C(C)(C)O)NC(=O)[C@H](CC3CCCCC3)NC(=O)[C@H](CCN)NC(=O)[C@@H](CC(C)C)NC(=O)[C@H](CCCN)NC(=O)[C@H](Cc3ccc(O)cc3)NC(=O)[C@H](Cc3ccc(-c4ccccc4)cc3)NC(=O)[C@H](Cc3ccc(C(N)=O)cc3)NC2=O)c1` (stereo partly drawn) [Compound 3730] ({CH2CO}-[4Pal]Y(Carboxymethyl)D[Phe(3-Me)][Phe(4-CONH2)][Bip]Y[Orn][dL][Dab][Cha][Val(3-OH)][Thr(3ξ)]C[AEEA][Aun]-OH; thioether N-14), the IC50 is reported as 22.8 nM. `Cc1cccc(C[C@@H]2NC(=O)[C@H](CC(=O)O)NC(=O)[C@H](Cc3ccc(OCC(=O)O)cc3)NC(=O)[C@H](CCN)NC(=O)CSC[C@@H](C(=O)N[C@@H](CCN)C(=O)NCCCCCCCCCCC(=O)O)NC(=O)[C@H](CO)NC(=O)[C@H](C(C)(C)O)NC(=O)[C@H](CC3CCCCC3)NC(=O)[C@H](Cc3cnc[nH]3)NC(=O)[C@@H](CC(C)C)NC(=O)[C@H](CCCN)NC(=O)[C@H](Cc3ccc(OCC(=O)O)cc3)NC(=O)[C@H](Cc3ccc(-c4ccccc4)cc3)NC(=O)[C@H](Cc3ccc(F)cc3)NC2=O)c1` [Compound 3731] ({CH2CO}-[Dab]Y(Carboxymethyl)D[Phe(3-Me)][Phe(4-F)][Bip]Y(Carboxymethyl)[Orn][dL]H[Cha][Val(3-OH)]SC[Dab][Aun]-OH; thioether N-14) was tested, and the IC50 was 16.9 nM. Work on `Cc1cccc(C[C@@H]2NC(=O)[C@H](CC(=O)O)NC(=O)[C@H](Cc3ccc(F)cc3)NC(=O)[C@H](CCN)NC(=O)CSC[C@@H](C(=O)N[C@@H](CCN)C(=O)NCCCCCCCCCCC(=O)O)NC(=O)[C@H](CO)NC(=O)[C@H](C(C)(C)O)NC(=O)[C@H](CC3CCCCC3)NC(=O)[C@H](Cc3cnc[nH]3)NC(=O)[C@@H](CC(C)C)NC(=O)[C@H](CCCN)NC(=O)[C@H](Cc3ccc(OCC(=O)O)cc3)NC(=O)[C@H](Cc3ccc(-c4ccccc4)cc3)NC(=O)[C@H](Cc3ccc(OCC(=O)O)cc3)NC2=O)c1` [Compound 3732] ({CH2CO}-[Dab][Phe(4-F)]D[Phe(3-Me)]Y(Carboxymethyl)[Bip]Y(Carboxymethyl)[Orn][dL]H[Cha][Val(3-OH)]SC[Dab][Aun]-OH; thioether N-14) yielded an IC50 of 56.2 nM. `Cc1cccc(C[C@@H]2NC(=O)[C@H](CC(=O)O)NC(=O)[C@H](Cc3ccc(OCC(=O)O)cc3)NC(=O)[C@H](Cc3ccncc3)NC(=O)CSC[C@@H](C(=O)N[C@@H](CCN)C(=O)NCCCCCCCCCCC(=O)O)NC(=O)[C@H](CO)NC(=O)[C@H](C(C)(C)O)NC(=O)[C@H](CC3CCCCC3)NC(=O)[C@H](Cc3c[nH]cn3)NC(=O)[C@@H](CC(C)C)NC(=O)[C@H](CCCN)NC(=O)[C@H](Cc3ccc(OCC(=O)O)cc3)NC(=O)[C@H](Cc3ccc(-c4ccccc4)cc3)NC(=O)[C@H](Cc3ccc(F)cc3)NC2=O)c1` [Compound 3733] ({CH2CO}-[4Pal]Y(Carboxymethyl)D[Phe(3-Me)][Phe(4-F)][Bip]Y(Carboxymethyl)[Orn][dL]H[Cha][Val(3-OH)]SC[Dab][Aun]-OH; thioether N-14) gave an IC50 of 115 nM. With `Cc1cccc(C[C@@H]2NC(=O)[C@H](CC(=O)O)NC(=O)[C@H](Cc3ccc(F)cc3)NC(=O)[C@H](Cc3ccncc3)NC(=O)CSC[C@@H](C(=O)N[C@@H](CCN)C(=O)NCCCCCCCCCCC(=O)O)NC(=O)[C@H](CO)NC(=O)[C@H](C(C)(C)O)NC(=O)[C@H](CC3CCCCC3)NC(=O)[C@H](Cc3c[nH]cn3)NC(=O)[C@@H](CC(C)C)NC(=O)[C@H](CCCN)NC(=O)[C@H](Cc3ccc(OCC(=O)O)cc3)NC(=O)[C@H](Cc3ccc(-c4ccccc4)cc3)NC(=O)[C@H](Cc3ccc(OCC(=O)O)cc3)NC2=O)c1` [Compound 3734] ({CH2CO}-[4Pal][Phe(4-F)]D[Phe(3-Me)]Y(Carboxymethyl)[Bip]Y(Carboxymethyl)[Orn][dL]H[Cha][Val(3-OH)]SC[Dab][Aun]-OH; thioether N-14) the IC50 was 128 nM. Molecule `Cc1cccc(C[C@@H]2NC(=O)[C@H](CC(=O)O)NC(=O)[C@H](Cc3ccc(C(=O)O)cc3)NC(=O)[C@H](Cc3ccncc3)NC(=O)CSC[C@@H](C(=O)NCCOCCOCC(=O)NCCOCCOCC(=O)NCCCCCCCCCCC(=O)O)NC(=O)[C@H](Cc3cnc[nH]3)NC(=O)[C@H](C(C)(C)O)NC(=O)[C@H](CC3CCCCC3)NC(=O)[C@H](CCN)NC(=O)[C@@H](CC(C)C)NC(=O)[C@H](CCCN)NC(=O)[C@H](Cc3ccc(OCC(=O)O)cc3)NC(=O)[C@H](Cc3ccc(-c4ccccc4)cc3)NC(=O)[C@H](Cc3ccc(OCC(=O)O)cc3)NC2=O)c1` [Compound 3735] ({CH2CO}-[4Pal][Phe(4-COOH)]D[Phe(3-Me)]Y(Carboxymethyl)[Bip]Y(Carboxymethyl)[Orn][dL][Dab][Cha][Val(3-OH)]HC[AEEA][AEEA][Aun]-OH; thioether N-14) has an IC50 of 20.6 nM. `CC(C)C[C@H]1NC(=O)[C@H](CCCN)NC(=O)[C@H](CCCNC(N)=O)NC(=O)[C@H](Cc2ccc(-c3ccccc3)cc2)NC(=O)[C@H](C(C)C)NC(=O)[C@H](Cc2c[nH]c3ccccc23)NC(=O)[C@H](CC(=O)O)NC(=O)[C@H](Cc2ccc(OCC(=O)O)cc2)NC(=O)[C@H](C(C)O)NC(=O)CSC[C@@H](C(=O)N[C@@H](CCN)C(=O)NCCOCCOCC(=O)NCCCCCCCCCCC(=O)O)NC(=O)[C@H](C(C)O)NC(=O)[C@H](C(C)(C)O)NC(=O)[C@H](CC2CCCCC2)NC(=O)[C@H](CCN)NC1=O` (stereo partly drawn) [Compound 3736] ({CH2CO}-[Thr(3ξ)]Y(Carboxymethyl)DWV[Bip][Cit][Orn][dL][Dab][Cha][Val(3-OH)][Thr(3ξ)]C[Dab][AEEA][Aun]-OH; thioether N-14) gave an IC50 of 18.5 nM. Work on `Cc1cccc(C[C@@H]2NC(=O)[C@H](CC(=O)O)NC(=O)[C@H](Cc3ccc(OCC(=O)O)cc3)NC(=O)[C@H](C(C)O)NC(=O)CSC[C@@H](C(=O)N[C@@H](CCN)C(=O)NCCOCCOCC(=O)NCCCCCCCCCCC(=O)O)NC(=O)[C@H](CCC(=O)O)NC(=O)[C@H](C(C)C)NC(=O)[C@H](CC3CCCCC3)NC(=O)[C@H](CCN)NC(=O)[C@@H](CC(C)C)NC(=O)[C@H](CCCN)NC(=O)[C@H](Cc3ccc(OCC(=O)O)cc3)NC(=O)[C@H](Cc3ccc(-c4ccccc4)cc3)NC(=O)[C@H](Cc3ccc(C(=O)O)cc3)NC2=O)c1` (stereo partly drawn) [Compound 3737] ({CH2CO}-[Thr(3ξ)]Y(Carboxymethyl)D[Phe(3-Me)][Phe(4-COOH)][Bip]Y(Carboxymethyl)[Orn][dL][Dab][Cha]VEC[Dab][AEEA][Aun]-OH; thioether N-14) yielded an IC50 of 10.5 nM. For `Cc1cccc(C[C@@H]2NC(=O)[C@H](CC(=O)O)NC(=O)[C@H](Cc3ccc(OCC(=O)O)cc3)NC(=O)[C@H](Cc3ccncc3)NC(=O)CSC[C@@H](C(=O)N[C@H](CCN)C(=O)NCCCCCCCCCCC(=O)O)NC(=O)[C@H](Cc3cnc[nH]3)NC(=O)[C@H](C(C)(C)O)NC(=O)[C@H](CC3CCCCC3)NC(=O)[C@H](CCN)NC(=O)[C@@H](CC(C)C)NC(=O)[C@H](CCCN)NC(=O)[C@H](Cc3ccc(OCC(=O)O)cc3)NC(=O)[C@H](Cc3ccc(-c4ccccc4)cc3)NC(=O)[C@H](Cc3ccc(OCC(=O)O)cc3)NC2=O)c1` [Compound 3738] ({CH2CO}-[4Pal]Y(Carboxymethyl)D[Phe(3-Me)]Y(Carboxymethyl)[Bip]Y(Carboxymethyl)[Orn][dL][Dab][Cha][Val(3-OH)]HC[dDab][Aun]-OH; thioether N-14), the IC50 was 20.7 nM. `CCC(C)[C@@H]1NC(=O)[C@H](Cc2ccc(-c3ccccc3)cc2)NC(=O)[C@H](Cc2ccc(C(=O)O)cc2)NC(=O)[C@H](Cc2cccc(C)c2)NC(=O)[C@H](CC(=O)O)NC(=O)[C@H](Cc2ccc(C(=O)O)cc2)NC(=O)[C@H](Cc2ccncc2)NC(=O)CSC[C@@H](C(=O)N[C@H](CCN)C(=O)NCCOCCOCC(=O)NCCCCCCCCCCC(=O)O)NC(=O)[C@H](CCC(=O)O)NC(=O)[C@H](C(C)(C)O)NC(=O)[C@H](CC2CCCCC2)NC(=O)[C@H](CCN)NC(=O)[C@@H](CC(C)C)NC(=O)[C@H](Cc2cnc[nH]2)NC1=O` (stereo partly drawn) [Compound 3739] ({CH2CO}-[4Pal][Phe(4-COOH)]D[Phe(3-Me)][Phe(4-COOH)][Bip][Ile(3ξ)]H[dL][Dab][Cha][Val(3-OH)]EC[dDab][AEEA][Aun]-OH; thioether N-14) gave an IC50 of 40.5 nM. For `Cc1cccc(C[C@@H]2NC(=O)[C@H](CC(=O)O)NC(=O)[C@H](Cc3ccc(OCC(=O)O)cc3)NC(=O)[C@H](Cc3ccncc3)NC(=O)CSC[C@@H](C(=O)N[C@H](CCN)C(=O)NCCOCCOCC(=O)NCCCCCCCCCCC(=O)O)NC(=O)[C@H](CCC(=O)O)NC(=O)[C@H](C(C)(C)O)NC(=O)[C@H](CC3CCCCC3)NC(=O)[C@H](CCN)NC(=O)[C@@H](CC(C)C)NC(=O)[C@H](Cc3cnc[nH]3)NC(=O)[C@H](Cc3ccc(C(=O)O)cc3)NC(=O)[C@H](Cc3ccc(-c4ccccc4)cc3)NC(=O)[C@H](Cc3ccc(C(=O)O)cc3)NC2=O)c1` [Compound 3740] ({CH2CO}-[4Pal]Y(Carboxymethyl)D[Phe(3-Me)][Phe(4-COOH)][Bip][Phe(4-COOH)]H[dL][Dab][Cha][Val(3-OH)]EC[dDab][AEEA][Aun]-OH; thioether N-14), the IC50 was 16.1 nM.
